Test results: ChEMBL document CHEMBL1681651, “A broad spectrum anticancer nucleoside with selective toxicity against human colon cells in vitro” (2011)

Columns and labels:
Type in all cases: functional
[1] = test system: ACHN; assay: Growth inhibition of human ACHN cells assessed as cell growth at 1 uM after 48 hrs by SRB assay; settings: read-out: Activity
[2] = test system: MDA-MB-231; assay: Growth inhibition of human MDA-MB-231 cells assessed as cell growth at 1 uM after 48 hrs by SRB assay; settings: MDA-MB-231, 48 h, read-out: Activity
[3] = test system: HCC 2998; assay: Growth inhibition of human HCC2998 cells assessed as cell growth at 10 uM after 48 hrs by SRB assay; settings: HCC 2998, 48 h, read-out: Activity
[4] = test system: HT-29; assay: Growth inhibition of human HT-29 cells assessed as cell growth at 10 uM after 48 hrs by SRB assay; settings: HT-29, 48 h, read-out: Activity
[5] = test system: SF-268; assay: Growth inhibition of human SF268 cells assessed as cell growth at 10 uM after 48 hrs by SRB assay; settings: SF-268, 48 h, read-out: Activity
[6] = test system: HCT-15; assay: Growth inhibition of human HCT15 cells after 48 hrs by […] growth inhibition assay; settings: HCT-15, 48 h
[7] = test system: UACC-257; assay: Growth inhibition of human UACC257 cells after 48 hrs by […] growth inhibition assay; settings: UACC-257, 48 h
[8] = test system: BT-549; assay: Growth inhibition of human BT549 cells after 48 hrs by […] growth inhibition assay; settings: BT-549, 48 h
[9] = test system: MDA-MB-231; assay: Growth inhibition of human MDA-MB-231 cells after 48 hrs by […] growth inhibition assay; settings: MDA-MB-231, 48 h
[10] = test system: MDA-MB-468; assay: Growth inhibition of human MDA-MB-468 cells after 48 hrs by […] growth inhibition assay; settings: MDA-MB-468, 48 h, read-out: LC50 (the source's name)
[11] = test system: SF-268; assay: Growth inhibition of human SF268 cells assessed as cell growth at 0.1 uM after 48 hrs by SRB assay; settings: SF-268, 48 h, read-out: Activity
[12] = test system: SNB-19; assay: Growth inhibition of human SNB19 cells assessed as cell growth at 0.1 uM after 48 hrs by SRB assay; settings: SNB-19, 48 h, read-out: Activity
[13] = test system: UACC-257; assay: Growth inhibition of human UACC257 cells assessed as cell growth at 0.1 uM after 48 hrs by SRB assay; settings: UACC-257, 48 h, read-out: Activity
[14] = test system: OVCAR-4; assay: Growth inhibition of human OVCAR4 cells assessed as cell growth at 0.1 uM after 48 hrs by SRB assay; settings: OVCAR-4, 48 h, read-out: Activity
[15] = test system: SK-OV-3; assay: Growth inhibition of human SKOV3 cells assessed as cell growth at 0.1 uM after 48 hrs by SRB assay; settings: SK-OV-3, 48 h, read-out: Activity
[16] = test system: OVCAR-4; assay: Growth inhibition of human OVCAR4 cells assessed as cell growth at 10 uM after 48 hrs by SRB assay; settings: OVCAR-4, 48 h, read-out: Activity
[17] = test system: RXF 393; assay: Growth inhibition of human RXF393 cells assessed as cell growth at 10 uM after 48 hrs by SRB assay; settings: RXF 393, 48 h, read-out: Activity
[18] = test system: TK-10; assay: Growth inhibition of human TK10 cells assessed as cell growth at 10 uM after 48 hrs by SRB assay; settings: TK-10, 48 h, read-out: Activity
[19] = test system: T47D; assay: Growth inhibition of human T47D cells assessed as cell growth at 10 uM after 48 hrs by SRB assay; settings: read-out: Activity
[20] = test system: A549; assay: Growth inhibition of human A549 cells assessed as cell growth at 100 uM after 48 hrs by SRB assay; settings: A549, 48 h, read-out: Activity
[21] = test system: U-251; assay: Growth inhibition of human U251 cells assessed as cell growth at 100 uM after 48 hrs by SRB assay; settings: U-251, 48 h, read-out: Activity
[22] = test system: BT-549; assay: Growth inhibition of human BT549 cells assessed as cell growth at 100 uM after 48 hrs by SRB assay; settings: BT-549, 48 h, read-out: Activity
[23] = Growth inhibition of human […] cells assessed as cell growth at 1 mM after 48 hrs by SRB assay; settings: read-out: Activity
[24] = test system: NCI-H23; assay: Growth inhibition of human NCI-H23 cells assessed as cell growth at 1 mM after 48 hrs by SRB assay; settings: NCI-H23, 48 h, read-out: Activity
[25] = test system: COLO 205; assay: Growth inhibition of human COLO205 cells assessed as cell growth at 1 mM after 48 hrs by SRB assay; settings: COLO 205, 48 h, read-out: Activity
[26] = test system: HT-29; assay: Growth inhibition of human HT-29 cells assessed as cell growth at 1 mM after 48 hrs by SRB assay; settings: HT-29, 48 h, read-out: Activity
[27] = test system: M14; assay: Growth inhibition of human M14 cells assessed as cell growth at 1 mM after 48 hrs by SRB assay; settings: M14, 48 h, read-out: Activity
[28] = test system: ACHN; assay: Growth inhibition of human ACHN cells assessed as cell growth at 1 mM after 48 hrs by SRB assay; settings: read-out: Activity
[29] = test system: T47D; assay: Growth inhibition of human T47D cells assessed as cell growth at 1 mM after 48 hrs by SRB assay; settings: read-out: Activity
[30] = test system: T47D; assay: Growth inhibition of human T47D cells assessed as cell growth at 0.1 uM after 48 hrs by SRB assay; settings: read-out: Activity
[31] = test system: COLO 205; assay: Growth inhibition of human COLO205 cells assessed as cell growth at 1 uM after 48 hrs by SRB assay; settings: COLO 205, 48 h, read-out: Activity
[32] = test system: HT-29; assay: Growth inhibition of human HT-29 cells assessed as cell growth at 1 uM after 48 hrs by SRB assay; settings: HT-29, 48 h, read-out: Activity
[33] = test system: SF-268; assay: Growth inhibition of human SF268 cells assessed as cell growth at 1 uM after 48 hrs by SRB assay; settings: SF-268, 48 h, read-out: Activity
[34] = test system: SF-539; assay: Growth inhibition of human SF539 cells assessed as cell growth at 1 uM after 48 hrs by SRB assay; settings: SF-539, 48 h, read-out: Activity
[35] = test system: LOX IMVI; assay: Growth inhibition of human LOXIMVI cells assessed as cell growth at 1 uM after 48 hrs by SRB assay; settings: read-out: Activity
[36] = test system: IGROV-1; assay: Growth inhibition of human IGROV1 cells assessed as cell growth at 1 uM after 48 hrs by SRB assay; settings: IGROV-1, 48 h, read-out: Activity
[37] = read-out: LC50 (the source's name)
[38] = read-out: pLC50 (the source's name) (converted)

`CNC(=O)NC[C@H]1O[C@@H](n2cnc3c(NC(=O)Nc4ccccc4)ncnc32)[C@H](O[Si](C)(C)C(C)(C)C)[C@@H]1CC(=O)N(C)OC` gave a growth at 1 µM [1] of 102%, a growth at 1 µM [2] of 104% and a growth at 10 µM [3] of 100%. The growth at 10 µM [4] was 100%, the growth at 10 µM [5] was 91% and the GI50 ([6]; read-out: GI50) was 6.47 µM. It also gave a CC50 [6, 37] greater than 100 µM, a TGI ([6]; read-out: TGI) greater than 100 µM and a GI50 ([6]; read-out: pGI50 (converted)) of 6.46 µM. It also gave a CC50 [6, 38] greater than 100 µM, a TGI ([6]; read-out: pTGI) greater than 100 µM and a GI50 ([7]; read-out: GI50) of 22.6 µM. It also gave a CC50 [7, 37] greater than 100 µM, a TGI ([7]; read-out: TGI) greater than 100 µM and a GI50 ([7]; read-out: pGI50 (converted)) of 22.4 µM. The CC50 [7, 38] was greater than 100 µM, the TGI ([7]; read-out: pTGI (converted)) was greater than 100 µM and the GI50 ([8]; read-out: GI50) was 29 µM. The CC50 [8, 37] was greater than 100 µM, the TGI ([8]; read-out: TGI) was greater than 100 µM and the GI50 ([8]; read-out: pGI50 (converted)) was 28.8 µM. For the same molecule, the CC50 [8, 38] was greater than 100 µM, the TGI ([8]; read-out: pTGI (converted)) was greater than 100 µM and the GI50 ([9]; read-out: GI50) was 12.3 µM. The CC50 [9, 37] was greater than 100 µM, the TGI ([9]; read-out: TGI) was greater than 100 µM and the GI50 ([9]; read-out: pGI50 (converted)) was 12.3 µM. It also gave a CC50 [9, 38] greater than 100 µM, a TGI ([9]; read-out: pTGI (converted)) greater than 100 µM and a CC50 [10] greater than 100 µM. The growth at 0.1 µM [11] was 98%, the growth at 0.1 µM [12] was 94% and the growth at 0.1 µM [13] was 95%. It also gave a growth at 0.1 µM [14] of 100%, a growth at 0.1 µM [15] of 96% and a growth at 10 µM [16] of 96%. For the same molecule, the growth at 10 µM [17] was 98%, the growth at 10 µM [18] was 104% and the growth at 10 µM [19] was 84%. The growth at 100 µM [20] was 49%, the growth at 100 µM [21] was 37% and the growth at 100 µM [22] was 70%. It also gave a growth at 1000 µM [23] of -16%, a growth at 1000 µM [24] of 43% and a growth at 1000 µM [25] of 1%. It also gave a growth at 1000 µM [26] of 17%, a growth at 1000 µM [27] of 18% and a growth at 1000 µM [28] of 23%. It also gave a growth at 1000 µM [29] of 17%, a growth at 0.1 µM [30] of 90% and a growth at 1 µM [31] of 93%. For the same molecule, the growth at 1 µM [32] was 107%, the growth at 1 µM [33] was 105% and the growth at 1 µM [34] was 94%. It also gave a growth at 1 µM [35] of 96% and a growth at 1 µM [36] of 89%.

Molecule `CNC(=O)OC[C@H]1O[C@@H](n2cnc3c(NC(=O)Nc4ccccc4)ncnc32)[C@H](O[Si](C)(C)C(C)(C)C)[C@@H]1O[Si](C)(C)C(C)(C)C` has a growth at 10 µM [4] of 81.3%, a growth at 10 µM [5] of 85.2% and a growth at 10 µM [16] of 85.8%. The growth at 10 µM [17] was 94.2%, the growth at 10 µM [18] was 96% and the growth at 10 µM [19] was 116%.
